Data from patent US20240382483A1, “HETEROCYCLIC EGFR INHIBITORS FOR USE IN THE TREATMENT OF CANCER” (Blueprint Medicines Corporation, priority 2021, published 2024).
Blank lines part the entries; values can stand above or below the compound they belong to.

Experiments:
[1] = biological target: T1, EGFR (L858R T790M C797S) (Homo sapiens, UniProt P00533, C797S/L858R/T790M); test: Biochemical EGFR inhibition assay (Caliper mobility shift), EGFR LRTMCS; conditions: LRTMCS (PH) IC50 (nM) @ 1 mM ATP (Num), EGFR LRTMCS mutant
T1 construct: purchased SignalChem E10-122VG
How it was run: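 Kinase reactions at 25 °C run to 10–20% peptide phosphorylation, stopped with 35 mM EDTA. Phosphorylated product and substrate separated electrophoretically by mobility shift. Apparent IC50 from percent activity versus log compound concentration.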

[2] = biological target: T2, intracellular phosphorylation of EGFR in NCI-H1975 cell line that harbors the EGFR L858R T790M mutations (Homo sapiens, UniProt P00533, L858R/T790M); test: NCI-H1975 pEGFR AlphaLISA assay; type: cell-based; conditions: NCI-H1975 cells (EGFR L858R T790M), p-EGFR (Tyr1068), 4-5 hours incubation; read-out: Ext pEGFR H1975 GMean IC50 (nM) Protocol: @Pharmaron AlphaLISA (Num)
T2 construct: NCI-H1975 cell line that harbors the EGFR L858R T790M mutations (ATCC, CRL-5908); host or cells: NCI-H1975
Protocol: On the next day, the test compounds and DMSO control were added into H1975 cell plate followed by incubation at 37C/5% CO2 for 4-5 hours. […] Then 5 μL of a donor bead mix was added to each well followed by overnight incubation at room temperature in dark. On the next day, the plate was read at a compatible plate reader to obtain pEGFR signal. Percent of pEGFR inhibition was plotted against log concentration of compounds to generate IC50 values.

T2 sequence (P00533 25-1210 T790M/L858R): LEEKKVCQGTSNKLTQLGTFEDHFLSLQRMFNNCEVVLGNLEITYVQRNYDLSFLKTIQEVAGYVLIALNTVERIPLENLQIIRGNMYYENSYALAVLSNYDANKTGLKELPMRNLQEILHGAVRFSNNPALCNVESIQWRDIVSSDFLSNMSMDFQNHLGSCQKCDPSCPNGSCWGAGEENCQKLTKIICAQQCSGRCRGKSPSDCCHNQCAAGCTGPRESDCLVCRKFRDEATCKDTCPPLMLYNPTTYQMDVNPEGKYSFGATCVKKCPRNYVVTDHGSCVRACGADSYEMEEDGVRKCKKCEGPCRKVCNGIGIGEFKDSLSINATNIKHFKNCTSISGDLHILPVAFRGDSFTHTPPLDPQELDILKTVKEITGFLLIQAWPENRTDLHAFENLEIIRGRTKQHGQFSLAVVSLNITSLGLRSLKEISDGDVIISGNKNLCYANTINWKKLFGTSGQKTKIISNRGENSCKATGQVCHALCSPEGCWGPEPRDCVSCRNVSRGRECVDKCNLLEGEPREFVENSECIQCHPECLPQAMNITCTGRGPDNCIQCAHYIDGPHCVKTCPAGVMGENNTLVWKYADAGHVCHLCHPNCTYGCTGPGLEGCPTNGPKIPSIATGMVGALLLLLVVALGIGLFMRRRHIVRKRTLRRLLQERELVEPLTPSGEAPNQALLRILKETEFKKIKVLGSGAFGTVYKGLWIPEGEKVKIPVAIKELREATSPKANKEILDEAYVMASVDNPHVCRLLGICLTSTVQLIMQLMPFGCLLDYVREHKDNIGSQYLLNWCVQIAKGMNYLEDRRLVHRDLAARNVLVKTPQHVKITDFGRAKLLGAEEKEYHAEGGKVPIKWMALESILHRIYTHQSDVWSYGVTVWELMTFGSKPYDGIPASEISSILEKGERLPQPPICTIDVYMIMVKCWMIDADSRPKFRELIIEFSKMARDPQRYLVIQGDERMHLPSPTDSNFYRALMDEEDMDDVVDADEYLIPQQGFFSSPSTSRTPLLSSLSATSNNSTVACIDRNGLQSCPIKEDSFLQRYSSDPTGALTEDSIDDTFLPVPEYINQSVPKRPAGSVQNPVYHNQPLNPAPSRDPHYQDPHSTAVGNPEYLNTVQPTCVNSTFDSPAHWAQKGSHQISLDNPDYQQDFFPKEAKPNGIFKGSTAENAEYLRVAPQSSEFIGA
T1 sequence (P00533 25-1210 T790M/C797S/L858R): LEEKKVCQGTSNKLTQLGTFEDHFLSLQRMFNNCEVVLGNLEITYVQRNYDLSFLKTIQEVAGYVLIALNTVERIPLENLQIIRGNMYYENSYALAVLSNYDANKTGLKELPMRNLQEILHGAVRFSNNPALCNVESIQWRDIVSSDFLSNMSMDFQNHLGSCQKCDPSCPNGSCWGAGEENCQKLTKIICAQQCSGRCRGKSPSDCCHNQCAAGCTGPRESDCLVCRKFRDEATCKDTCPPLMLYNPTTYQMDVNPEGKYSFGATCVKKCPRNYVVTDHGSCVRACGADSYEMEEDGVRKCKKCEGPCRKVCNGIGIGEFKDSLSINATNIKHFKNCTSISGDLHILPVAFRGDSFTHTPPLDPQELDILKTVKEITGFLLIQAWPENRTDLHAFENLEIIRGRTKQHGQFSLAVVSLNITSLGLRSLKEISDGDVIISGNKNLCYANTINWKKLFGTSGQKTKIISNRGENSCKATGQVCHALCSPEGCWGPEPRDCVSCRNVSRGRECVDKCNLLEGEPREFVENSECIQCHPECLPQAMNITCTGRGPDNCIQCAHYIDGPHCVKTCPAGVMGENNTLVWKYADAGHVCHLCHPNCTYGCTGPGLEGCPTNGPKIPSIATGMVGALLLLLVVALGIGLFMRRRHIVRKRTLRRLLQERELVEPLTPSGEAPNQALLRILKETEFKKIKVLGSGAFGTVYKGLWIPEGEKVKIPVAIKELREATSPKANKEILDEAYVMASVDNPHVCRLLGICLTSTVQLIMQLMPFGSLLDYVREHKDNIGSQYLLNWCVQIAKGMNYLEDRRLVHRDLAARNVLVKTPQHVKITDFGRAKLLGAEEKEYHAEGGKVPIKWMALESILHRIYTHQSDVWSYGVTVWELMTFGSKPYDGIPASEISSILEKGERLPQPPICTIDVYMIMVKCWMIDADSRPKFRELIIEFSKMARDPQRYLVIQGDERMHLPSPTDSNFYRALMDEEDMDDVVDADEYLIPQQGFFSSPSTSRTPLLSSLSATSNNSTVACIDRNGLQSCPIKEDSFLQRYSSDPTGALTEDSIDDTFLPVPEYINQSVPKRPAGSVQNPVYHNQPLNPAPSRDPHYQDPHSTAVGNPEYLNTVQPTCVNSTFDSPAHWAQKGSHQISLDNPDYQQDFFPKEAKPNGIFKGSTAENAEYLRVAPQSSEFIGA

- IC50 [1]: < 15 nM
- IC50 [2]: 20 to 30 nM
SMILES: CC(C)c1ncc(N2CC[C@H]2C)c2cnc(Nc3ccnc(N4CC[C@@H](O)[C@@](C)(F)C4)n3)cc12 [Example 106, (3S,4R)-3-fluoro-1-(4-((5-isopropyl-8-((R)-2-methylazetidin-1-yl)-2,6-naphthyridin-3-yl)amino)pyrimidin-2-yl)-3-methylpiperidin-4-ol]

- IC50 [1]: < 15 nM
- IC50 [2]: < 10 nM
SMILES: CO[C@H]1CN(c2ncc(C(C)C)c3cc(Nc4ccnc(N5CC[C@@H](O)[C@@](C)(F)C5)n4)ncc23)[C@@H]1C [Example 107, (3S,4R)-3-fluoro-1-(4-((5-isopropyl-8-((2R,3S)-3-methoxy-2-methylazetidin-1-yl)-2,7-naphthyridin-3-yl)amino)pyrimidin-2-yl)-3-methylpiperidin-4-ol]

- IC50 [1]: < 15 nM
- IC50 [2]: 10 to 20 nM
SMILES: [2H]C([2H])([2H])O[C@H]1CN(c2ncc(C(C)C)c3cc(Nc4ccnc(N5CC[C@@H](O)[C@@](C)(F)C5)n4)ncc23)[C@@H]1C [Example 108, (3S,4R)-3-fluoro-1-(4-((5-isopropyl-8-((2R,3S)-3-(methoxy-d3)-2-methylazetidin-1-yl)-2,7-naphthyridin-3-yl)amino)pyrimidin-2-yl)-3-methylpiperidin-4-ol]

- IC50 [1]: 20 to 30 nM
- IC50 [2]: 10 to 20 nM
SMILES: CC(C)c1cnc(N2C[C@H](OC(F)F)[C@H]2C)c2cnc(Nc3ccnc(N4CC[C@@H](O)[C@@](C)(F)C4)n3)cc12 [Example 109, (3S,4R)-1-(4-((8-((2R,3S)-3-(difluoromethoxy)-2-methylazetidin-1-yl)-5-isopropyl-2,7-naphthyridin-3-yl)amino)pyrimidin-2-yl)-3-fluoro-3-methylpiperidin-4-ol]

- IC50 [1]: 30 to 100 nM
- IC50 [2]: > 50 nM
SMILES: CC(C)c1ccc(N2CCC2)c2cnc(Nc3ccnc(N4CC[C@@H](O)[C@@](C)(F)C4)n3)cc12 [Example 110, (3S,4R)-1-(4-((8-(azetidin-1-yl)-5-isopropylisoquinolin-3-yl)amino)pyrimidin-2-yl)-3-fluoro-3-methylpiperidin-4-ol]

Further lines, the compound ahead of its results:

SMILES: CC(C)c1cnc(N2CC(C3COC3)C2)c2cnc(Nc3ccnc(N4CC[C@@H](O)[C@@](C)(F)C4)n3)cc12 [Example 101, (3S,4R)-3-fluoro-1-(4-((5-isopropyl-8-(3-(oxetan-3-yl)azetidin-1-yl)-2,7-naphthyridin-3-yl)amino)pyrimidin-2-yl)-3-methylpiperidin-4-ol]
- IC50 [1]: < 15 nM
- IC50 [2]: 30 to 50 nM

SMILES: C[C@@H]1[C@@H](O)CN1c1ncc(C2CC2)c2cc(Nc3ccnc(N4CC[C@@H](O)[C@@](C)(F)C4)n3)ncc12 [Example 102, (3S,4R)-1-(4-((5-cyclopropyl-8-((2R,3S)-3-hydroxy-2-methylazetidin-1-yl)-2,7-naphthyridin-3-yl)amino)pyrimidin-2-yl)-3-fluoro-3-methylpiperidin-4-ol]
- IC50 [1]: 20 to 30 nM
- IC50 [2]: > 50 nM

SMILES: CC(C)c1ccc(N2C[C@H](O)[C@H]2C)c2cnc(Nc3ccnc(N4CC[C@@H](O)[C@@](C)(F)C4)n3)cc12 [Example 103, (3S,4R)-3-fluoro-1-(4-((8-((2R,3S)-3-hydroxy-2-methylazetidin-1-yl)-5-isopropylisoquinolin-3-yl)amino)pyrimidin-2-yl)-3-methylpiperidin-4-ol]
- IC50 [1]: < 15 nM
- IC50 [2]: 10 to 20 nM

SMILES: Cc1nnc(C2CN(c3ccc(C(C)C)c4cc(Nc5ccnc(N6CC[C@@H](O)[C@@](C)(F)C6)n5)ncc34)C2)o1 [Example 104, (3S,4R)-3-fluoro-1-(4-((5-isopropyl-8-(3-(5-methyl-1,3,4-oxadiazol-2-yl)azetidin-1-yl)isoquinolin-3-yl)amino)pyrimidin-2-yl)-3-methylpiperidin-4-ol]
- IC50 [1]: < 15 nM
- IC50 [2]: < 10 nM

SMILES: CC(C)c1ccc(N2CC[C@H]2CO)c2cnc(Nc3ccnc(N4CC[C@@H](O)[C@@](C)(F)C4)n3)cc12 [Example 105, (3S,4R)-3-fluoro-1-(4-((8-((S)-2-(hydroxymethyl)azetidin-1-yl)-5-isopropylisoquinolin-3-yl)amino)pyrimidin-2-yl)-3-methylpiperidin-4-ol]
- IC50 [1]: < 15 nM
- IC50 [2]: 20 to 30 nM
